Experimental data taken from patent publication US4468511A, “C-20- And C-23-Modified macrolide derivatives” (Eli Lilly and Company, priority 1983, dated 1984).
In brackets after ≈: the same amount, converted by molar mass. Like-named read-outs stand apart in the source and are kept apart here.

Columns and labels:
Format in all cases: cell-based
Escherichia coli EC14 = experiment: MIC, standard agar-dilution assay; conditions: agar-dilution; Escherichia coli EC14; read-out: MIC
Method: (§1) Certain of the derivatives are active against some gram-negative bacteria, such as Pasteurella species. The MIC's in Table II were determined by standard agar-dilution assays. The MIC's in Table III were obtained using a conventional broth-dilution microtiter test.

Escherichia coli TEM = experiment: MIC, standard agar-dilution assay; conditions: agar-dilution; Escherichia coli TEM; read-out: MIC
Method: as §1

[1] = tested on: Klebsiella pneumoniae KAE; experiment: MIC, standard agar-dilution assay; conditions: agar-dilution; Klebsiella pneumoniae KAE; read-out: MIC
Method: as §1

[2] = tested on: Klebsiella pneumoniae X26; experiment: MIC, standard agar-dilution assay
Method: as §1

[3] = tested on: Staphylococcus aureus V41; experiment: MIC, standard agar-dilution assay; conditions: Staphylococcus aureus, V41
Method: as §1

[4] = tested on: Staphylococcus aureus X1.1; experiment: MIC, standard agar-dilution assay
Method: as §1

[5] = tested on: Streptococcus Group D X66; experiment: MIC, standard agar-dilution assay; conditions: agar-dilution; Streptococcus Group D X66; read-out: MIC
Method: as §1

[6] = tested on: Streptococcus pneumoniae Park I; experiment: MIC, standard agar-dilution assay; conditions: Streptococcus pneumoniae
Method: as §1

[7] = tested on: Streptococcus pyogenes 9960; experiment: MIC, standard agar-dilution assay; conditions: agar-dilution, Streptococcus 9960, read-out: MIC
Method: as §1

[8] = tested on: Streptococcus pyogenes C203; experiment: MIC, standard agar-dilution assay
Method: as §1

[9] = tested on: Haemophilus influenzae 76; experiment: MIC, standard agar-dilution assay; conditions: Haemophilus influenzae, 76
Method: (§2) The MIC's in Table II were determined by standard agar-dilution assays. The MIC's in Table III were obtained using a conventional broth-dilution microtiter test.

[10] = tested on: Haemophilus influenzae C.L.; experiment: MIC, standard agar-dilution assay
Method: as §2

[11] = tested on: Staphylococcus aureus X400; experiment: MIC, standard agar-dilution assay
Method: as §2

[12] = tested on: Staphylococcus epidermidis EPI2; experiment: MIC, standard agar-dilution assay; conditions: Staphylococcus epidermidis, EPI2
Method: as §2

[13] = tested on: Staphylococcus aureus S13E; experiment: microbe, parasite or virus in culture
Method: as §2

[14] = tested on: Staphylococcus epidermidis EPI1; experiment: microbe, parasite or virus in culture; conditions: agar-dilution; Staphylococcus epidermidis EPI1; read-out: MIC
Method: as §2

[15] = tested on: Mycoplasma gallisepticum 34159; experiment: MIC, conventional broth-dilution microtiter test; conditions: Mycoplasmoides gallisepticum; broth-dilution microtiter; Mycoplasma gallisepticum 34159, Resistant strain; read-out: MIC
Method: as §1

[16] = tested on: Mycoplasma gallisepticum 41313; experiment: MIC, conventional broth-dilution microtiter test; conditions: Mycoplasmoides gallisepticum; broth-dilution microtiter; Mycoplasma gallisepticum 41313, Resistant strain; read-out: MIC
Method: as §1

Mycoplasma gallisepticum = experiment: MIC, conventional broth-dilution microtiter test; conditions: Mycoplasmoides gallisepticum; broth-dilution microtiter; Mycoplasma gallisepticum; read-out: MIC
Method: as §1

Mycoplasma hyorhinis = experiment: MIC, conventional broth-dilution microtiter test; conditions: broth-dilution microtiter; Mycoplasma hyorhinis; read-out: MIC
Method: as §1

Mycoplasma synoviae = experiment: MIC, conventional broth-dilution microtiter test; conditions: Mycoplasmopsis synoviae; broth-dilution microtiter; Mycoplasma synoviae; read-out: MIC
Method: as §1

[17] = tested on: Pasteurella hemolytica 22C; experiment: MIC, conventional broth-dilution microtiter test; conditions: broth-dilution microtiter; Pasteurella hemolytica 22C; read-out: MIC
Method: as §1

[18] = tested on: Pasteurella hemolytica 23C; experiment: MIC, conventional broth-dilution microtiter test; conditions: broth-dilution microtiter; Pasteurella hemolytica 23C; read-out: MIC
Method: as §1

[19] = tested on: Pasteurella hemolytica 41D; experiment: MIC, conventional broth-dilution microtiter test; conditions: broth-dilution microtiter; Pasteurella hemolytica 41D; read-out: MIC
Method: as §1

[20] = tested on: Pasteurella multocida 17E; experiment: MIC, conventional broth-dilution microtiter test; conditions: broth-dilution microtiter; Pasteurella multocida 17E, Bovine isolate; read-out: MIC
Method: as §1

[21] = tested on: Pasteurella multocida 22A; experiment: MIC, conventional broth-dilution microtiter test; conditions: broth-dilution microtiter; Pasteurella multocida 22A; read-out: MIC
Method: as §1

[22] = tested on: Pasteurella multocida 40G; experiment: MIC, conventional broth-dilution microtiter test; conditions: broth-dilution microtiter; Pasteurella multocida 40G; read-out: MIC
Method: as §1

[23] = tested on: Pasteurella multocida 60A; experiment: MIC, conventional broth-dilution microtiter test; conditions: broth-dilution microtiter; Pasteurella multocida 60A, Avian isolate; read-out: MIC
Method: as §1

[24] = tested on: Pasteurella multocida 68C; experiment: MIC, conventional broth-dilution microtiter test; conditions: broth-dilution microtiter; Pasteurella multocida 68C; read-out: MIC
Method: as §1

Staphylococcus aureus = experiment: MIC, conventional broth-dilution microtiter test; conditions: broth-dilution microtiter, read-out: MIC
Method: as §1

Streptococcus sp. 80 = experiment: MIC, conventional broth-dilution microtiter test; conditions: broth-dilution microtiter; Streptococcus sp. 80; read-out: MIC
Method: as §1

| SMILES | MIC (Escherichia coli EC14) [µg/mL] | MIC (Escherichia coli TEM) [µg/mL] | MIC [1] [µg/mL] | MIC [3] [µg/mL] | MIC [5] [µg/mL] | MIC [6] [µg/mL] | MIC [7] [µg/mL] | MIC [9] [µg/mL] | MIC [12] [µg/mL] | MIC [13] [µg/mL] | MIC [14] [µg/mL] | MIC [15] [µg/mL] | MIC (Mycoplasma gallisepticum) [µg/mL] | MIC (Mycoplasma hyorhinis) [µg/mL] | MIC (Mycoplasma synoviae) [µg/mL] | MIC [17] [µg/mL] | MIC [18] [µg/mL] | MIC [19] [µg/mL] | MIC [20] [µg/mL] | MIC [21] [µg/mL] | other results |
| --- | --- | --- | --- | --- | --- | --- | --- | --- | --- | --- | --- | --- | --- | --- | --- | --- | --- | --- | --- | --- | --- |
| CCC1OC(=O)CC(O)C(C)C(OC2OC(C)C(O)C(N(C)C)C2O)C(CCN(C)C)CC(C)C(=O)C=CC(C)=CC1CO (stereo not shown) [Compound 2, 20-N-Dimethylamino-20-deoxy-20-dihydro-OMT] | > 128 | 128 (≈ 204 µM) | > 128 | 32 (≈ 51.1 µM) | > 128 | 32 (≈ 51.1 µM) | > 128 | 32 (≈ 51.1 µM) | 64 (≈ 102 µM) | 32 (≈ 51.1 µM) | 16 (≈ 25.5 µM) | > 50 | 50 (≈ 79.8 µM) | 50 (≈ 79.8 µM) | > 50 | 50 (≈ 79.8 µM) | 50 (≈ 79.8 µM) | 50 (≈ 79.8 µM) | 25 (≈ 39.9 µM) | 25 (≈ 39.9 µM) | MIC ([2]; agar-dilution, Klebsiella pneumoniae X26, read-out: MIC): 16 µg/mL (≈ 25.5 µM); MIC ([4]; Staphylococcus aureus, X1.1): 32 µg/mL (≈ 51.1 µM); MIC ([8]; Streptococcus pyogenes, C203): 32 µg/mL (≈ 51.1 µM); MIC ([10]; agar-dilution, Haemophilus influenzae C.L., Ampicillin-sensitive strain, read-out: MIC): 16 µg/mL (≈ 25.5 µM); MIC ([11]; Staphylococcus aureus, X400): 64 µg/mL (≈ 102 µM); MIC [16]: 50 µg/mL (≈ 79.8 µM); MIC [22]: 50 µg/mL (≈ 79.8 µM); MIC [23]: 25 µg/mL (≈ 39.9 µM); MIC [24]: 12.5 µg/mL (≈ 19.9 µM); MIC (Staphylococcus aureus): 50 µg/mL (≈ 79.8 µM); MIC (Streptococcus sp. 80): 25 µg/mL (≈ 39.9 µM) |
| CCC1OC(=O)CC(O)C(C)C(OC2OC(C)C(O)C(N(C)C)C2O)C(CCNC)CC(C)C(=O)C=CC(C)=CC1CO (stereo not shown) [Compound 3, 20-N-Methylamino-20-deoxy-20-dihydro-OMT] | > 128 | 128 (≈ 209 µM) | > 128 | 64 (≈ 104 µM) | > 128 | 16 (≈ 26.1 µM) | > 128 | 128 (≈ 209 µM) | 64 (≈ 104 µM) | 64 (≈ 104 µM) | 32 (≈ 52.2 µM) | > 50 | 50 (≈ 81.6 µM) | > 50 | 25 (≈ 40.8 µM) | 50 (≈ 81.6 µM) | 50 (≈ 81.6 µM) | 50 (≈ 81.6 µM) | 50 (≈ 81.6 µM) | 50 (≈ 81.6 µM) | MIC ([2]; Klebsiella pneumoniae, X26): 64 µg/mL (≈ 104 µM); MIC ([4]; agar-dilution, Staphylococcus aureus X1.1, read-out: MIC): 32 µg/mL (≈ 52.2 µM); MIC ([8]; agar-dilution, Streptococcus pyogenes C203, read-out: MIC): 128 µg/mL (≈ 209 µM); MIC ([10]; Haemophilus influenzae): 128 µg/mL (≈ 209 µM); MIC ([11]; agar-dilution, Staphylococcus aureus X400, Methicillin-resistant strain, read-out: MIC): 128 µg/mL (≈ 209 µM); MIC [22]: 50 µg/mL (≈ 81.6 µM); MIC [23]: 50 µg/mL (≈ 81.6 µM); MIC [24]: 25 µg/mL (≈ 40.8 µM); MIC (Staphylococcus aureus): 50 µg/mL (≈ 81.6 µM); MIC (Streptococcus sp. 80): 50 µg/mL (≈ 81.6 µM) |
